# Patent US20240391931A1 (Bristol-Myers Squibb Company, priority 2021, published 2024)
# Target: HER2YVMA (Homo sapiens, UniProt P04626, INS775YVMA)
# Test: HER2 signaling (pHER2) in Hek293-HER2YVMA cells
# Type: cell-based
# Parameters: expressed in transfected cells; host or cells: HEK293 (pool), Ba/F3 (clones), BEAS2B (clones); lentiviral vector pCDH-CMV-MCS-EF1-Neo
# Conditions: 1.5 hr compound, 1% FBS, read-out: HEKYVMA pHER2 EC50
# Procedure, shortened: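 Lentivirally transduced HER2YVMA lines (HEK293 pool; BEAS2B clone) treated 1.5 h at 37 °C in 1% FBS medium with compound at 0.0005–1.1 μM. Lysates read by MSD immunoassay for pHER2 (Tyr1248) normalized to total HER2, as % DMSO control; EC50 from variable-slope sigmoidal fit.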
# HER2YVMA, sequence (P04626 with tags, fused parts or gaps INS775YVMA): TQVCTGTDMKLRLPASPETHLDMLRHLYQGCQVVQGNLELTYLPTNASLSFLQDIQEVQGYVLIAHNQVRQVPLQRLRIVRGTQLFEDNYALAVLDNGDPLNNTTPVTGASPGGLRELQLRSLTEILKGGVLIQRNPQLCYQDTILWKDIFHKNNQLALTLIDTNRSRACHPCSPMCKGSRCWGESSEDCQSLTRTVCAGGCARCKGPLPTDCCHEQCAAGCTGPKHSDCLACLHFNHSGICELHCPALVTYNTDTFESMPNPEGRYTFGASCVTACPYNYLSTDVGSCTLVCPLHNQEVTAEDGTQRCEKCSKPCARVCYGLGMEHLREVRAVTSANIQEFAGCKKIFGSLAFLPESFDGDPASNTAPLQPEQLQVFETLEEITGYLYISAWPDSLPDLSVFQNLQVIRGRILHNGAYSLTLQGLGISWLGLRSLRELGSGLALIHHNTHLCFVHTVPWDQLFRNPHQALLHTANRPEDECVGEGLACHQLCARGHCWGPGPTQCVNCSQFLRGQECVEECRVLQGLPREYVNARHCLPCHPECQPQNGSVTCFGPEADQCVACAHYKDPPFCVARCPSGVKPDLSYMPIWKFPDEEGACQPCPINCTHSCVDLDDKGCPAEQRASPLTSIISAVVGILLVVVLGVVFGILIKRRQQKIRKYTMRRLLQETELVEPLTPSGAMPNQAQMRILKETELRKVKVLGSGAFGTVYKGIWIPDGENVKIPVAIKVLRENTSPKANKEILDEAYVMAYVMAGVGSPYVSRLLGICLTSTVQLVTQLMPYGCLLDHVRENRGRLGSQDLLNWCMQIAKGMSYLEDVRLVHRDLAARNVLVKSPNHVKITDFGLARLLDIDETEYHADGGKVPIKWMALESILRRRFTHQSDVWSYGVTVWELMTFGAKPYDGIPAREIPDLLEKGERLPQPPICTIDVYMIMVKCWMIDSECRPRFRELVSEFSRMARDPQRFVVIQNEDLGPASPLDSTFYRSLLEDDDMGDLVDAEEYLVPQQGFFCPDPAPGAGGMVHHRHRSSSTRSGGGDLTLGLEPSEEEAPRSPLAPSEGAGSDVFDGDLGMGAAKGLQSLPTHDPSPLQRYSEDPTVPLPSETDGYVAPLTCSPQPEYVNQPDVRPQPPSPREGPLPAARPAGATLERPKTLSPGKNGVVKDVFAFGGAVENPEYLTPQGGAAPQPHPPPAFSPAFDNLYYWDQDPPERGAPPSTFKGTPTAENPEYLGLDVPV
row,EC50 [nM],Compound
1,< 100,"Cc1ccc(Oc2ccc(Nc3ncnc4sc5c(c34)CCN(C(=O)/C=C/CN(C)C)CC5)cc2C)cn1 [Compound 100, (E)-4-(dimethylamino)-1-(4-((3-methyl-4-((6-methylpyridin-3-yl)oxy)phenyl)amino)-8,9-dihydro-5H-pyrimido[5′,4′:4,5]thieno[2,3-d]azepin-7(6H)-yl)but-2-en-1-one]"
2,< 100,"Cc1ccc(Oc2ccc(Nc3ncnc4sc5c(c34)CCCN(C(=O)/C=C/CN(C)C)C5)cc2C)cn1 [Compound 101, (E)-4-(Dimethylamino)-1-(4-((3-methyl-4-((6-methylpyridin-3-yl)oxy)phenyl)amino)-6,7-dihydro-5H-pyrimido[5′,4′:4,5]thieno[2,3-c]azepin-8(9H)-yl)but-2-en-1-one]"
3,100 to 350,"C=CC(=O)N1CCc2[nH]c3ncnc(Nc4ccc(Oc5ccc6ncnn6c5)c(C)c4)c3c2C1 [Compound 102, 1-(4-((4-([1,2,4]triazolo[1,5-a]pyridin-6-yloxy)-3-methylphenyl)amino)-5,7,8,9-tetrahydro-6H-pyrido[3′,4′:4,5]pyrrolo[2,3-d]pyrimidin-6-yl)prop-2-en-1-one]"
4,< 100,"Cc1cc(Nc2ncnc3sc4c(c23)CN(C(=O)/C=C/CN(C)C)CC4)ccc1Oc1ccc2ncnn2c1 [Compound 103, (E)-1-(4-((4-([1,2,4]triazolo[1,5-a]pyridin-6-yloxy)-3-methylphenyl)amino)-7,8-dihydropyrido[3′,4′:4,5]thieno[2,3-d]pyrimidin-6(5H)-yl)-4-(dimethylamino)but-2-en-1-one]"
5,< 100,"Cc1cc(Nc2ncnc3sc4c(c23)CCN(C(=O)/C=C/CN(C)C)C4)ccc1Oc1ccc2nonc2c1 [Compound 104, (E)-1-(4-((4-(Benzo[c][1,2,5]oxadiazol-5-yloxy)-3-methylphenyl)amino)-5,6-dihydropyrido[4′,3′:4,5]thieno[2,3-d]pyrimidin-7(8H)-yl)-4-(dimethylamino)but-2-en-1-one]"
